Measured values from PubChem BioAssay (NCI).
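A five-concentration, 48-hour dose response in 96-well plates underlies each endpoint, interpolated linearly between surrounding concentrations. GI50 marks 50% less growth. The concentration for full growth arrest is given as TGI.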

Experiments:
Assay in all cases: DTP human tumour cell line panel, 48 h
[1] = test system: KM12 colon
[2] = test system: CCRF-CEM leukemia
[3] = test system: OVCAR-5 ovarian
[4] = test system: HS 578T breast
[5] = test system: HT29 colon
[6] = test system: SK-OV-3 ovarian
[7] = test system: PC-3 prostate
[8] = test system: K-562 leukemia
[9] = test system: NCI/ADR-RES ovarian
[10] = test system: MCF7 breast
[11] = test system: OVCAR-3 ovarian
[12] = test system: MDA-MB-435
[13] = test system: MALME-3M melanoma
[14] = test system: A498 renal
[15] = test system: ACHN renal
[16] = test system: RXF 393 renal
[17] = test system: U251 CNS
[18] = test system: CAKI-1 renal
[19] = test system: SF-539 CNS
[20] = test system: SK-MEL-5 melanoma
[21] = test system: SR leukemia
[22] = test system: SF-295 CNS
[23] = test system: BT-549 breast
[24] = test system: UO-31 renal
[25] = test system: HL-60(TB) leukemia
[26] = test system: SNB-75 CNS
[27] = test system: SNB-19 CNS
[28] = test system: NCI-H460 lung
[29] = test system: DU-145 prostate
[30] = test system: IGROV1 ovarian
[31] = test system: RPMI-8226 leukemia
[32] = test system: SF-268 CNS
[33] = test system: SN12C renal
[34] = test system: NCI-H23 lung
[35] = test system: NCI-H522 lung
[36] = test system: SK-MEL-2 melanoma
[37] = test system: HCC-2998 colon
[38] = test system: A549 NSCLC
[39] = test system: T-47D breast
[40] = test system: SK-MEL-28 melanoma
[41] = test system: LOX IMVI melanoma
[42] = test system: UACC-257 melanoma
[43] = test system: OVCAR-4 ovarian
[44] = test system: TK-10 renal
[45] = test system: UACC-62 melanoma
[46] = test system: COLO 205 colon
[47] = test system: 786-0 renal
[48] = test system: HOP-62 NSCLC
[49] = test system: EKVX NSCLC
[50] = test system: MDA-MB-231 breast
[51] = test system: SW-620 colon
[52] = test system: HOP-92 NSCLC
[53] = test system: MOLT-4 leukemia
[54] = test system: HCT-15 colon
[55] = test system: NCI-H226 lung
[56] = test system: M14 melanoma
[57] = test system: OVCAR-8 ovarian
[58] = test system: HCT-116 colon

## Cc1cc(Nc2ccc(OCc3ccccc3)cc2)nc2cc(O)ccc12
[1]
  GI50: 3.1 µM
  TGI: 13.3 µM
[2]
  GI50: 3.01 µM
  TGI: 20.7 µM
[3]
  GI50: 4.66 µM
  TGI: 18.4 µM
[4]
  GI50: 10.2 µM
  TGI: 29.2 µM
[5]
  GI50: 3.86 µM
  TGI: 14.9 µM
[6]
  GI50: 13.4 µM
  TGI: 26.7 µM
[7]
  GI50: 3.46 µM
  TGI: 18 µM
[8]
  GI50: 1.09 µM
  TGI: 14.9 µM
[9]
  GI50: 5.93 µM
  TGI: 19.8 µM
[10]
  GI50: 3.32 µM
  TGI: 14.2 µM
[11]
  GI50: 8.79 µM
  TGI: 22.5 µM
[12]
  GI50: 5.49 µM
  TGI: 17.9 µM
[13]
  GI50: 3.88 µM
  TGI: 11.2 µM
[14]
  GI50: 13 µM
  TGI: 27 µM
[15]
  GI50: 3.41 µM
  TGI: 13.3 µM
[16]
  GI50: 2.95 µM
  TGI: 12.1 µM
[17]
  GI50: 4.54 µM
  TGI: 17.5 µM
[18]
  GI50: 4.88 µM
  TGI: 18.3 µM
[19]
  GI50: 2.08 µM
  TGI: 4.93 µM
[20]
  GI50: 1.68 µM
  TGI: 3.2 µM
[21]
  GI50: 3.26 µM
  TGI: 13.8 µM
[22]
  GI50: 2.23 µM
  TGI: 5.36 µM
[23]
  GI50: 5.46 µM
  TGI: 21 µM
[24]
  GI50: 2.04 µM
  TGI: 6.58 µM
[25]
  GI50: 3.38 µM
  TGI: 14.7 µM
[26]
  GI50: 2.4 µM
  TGI: 11.2 µM
[27]
  GI50: 9.57 µM
  TGI: 23.2 µM
[28]
  GI50: 3.09 µM
  TGI: 10.2 µM
[29]
  GI50: 11.9 µM
  TGI: 25.4 µM
[30]
  GI50: 10.6 µM
  TGI: 26.3 µM
[31]
  GI50: 2.5 µM
  TGI: 8.33 µM
[32]
  GI50: 11.9 µM
  TGI: 26.4 µM
[33]
  GI50: 5.75 µM
  TGI: 20.3 µM
[34]
  GI50: 6.91 µM
  TGI: 21.5 µM
[35]
  GI50: 3.01 µM
  TGI: 12.1 µM
[36]
  GI50: 11.9 µM
  TGI: 30.1 µM
[37]
  GI50: 2.41 µM
  TGI: 5.18 µM
[38]
  GI50: 5.23 µM
  TGI: 20.4 µM
[39]
  GI50: 5.93 µM
  TGI: 23.2 µM
[40]
  GI50: 2.95 µM
  TGI: 8.19 µM
[41]
  GI50: 2.47 µM
  TGI: 6.47 µM
[42]
  GI50: 3.49 µM
  TGI: 13.5 µM
[43]
  GI50: 8.74 µM
  TGI: 22.6 µM
[44]
  GI50: 14.5 µM
  TGI: 29.2 µM
[45]
  GI50: 2.96 µM
  TGI: 10.7 µM
[46]
  GI50: 4.84 µM
  TGI: 17 µM
[47]
  GI50: 4.51 µM
  TGI: 17.2 µM
[48]
  GI50: 11.7 µM
  TGI: 26.5 µM
[49]
  GI50: 12.3 µM
  TGI: 27.2 µM
[50]
  GI50: 2.52 µM
  TGI: 8.78 µM
[51]
  GI50: 5.12 µM
  TGI: 19.4 µM
[52]
  GI50: 2.01 µM
  TGI: 6.26 µM
[53]
  GI50: 3.37 µM
  TGI: 17.4 µM
[54]
  GI50: 2.16 µM
  TGI: 5.48 µM
[55]
  GI50: 3.49 µM
  TGI: 17.6 µM
[56]
  GI50: 2.39 µM
  TGI: 6.15 µM
[57]
  GI50: 12.4 µM
  TGI: 29.5 µM
[58]
  GI50: 4 µM
  TGI: 14.6 µM
